Reference: patent US10945978B2, “Treatment and diagnosis of melanoma” (The Rockefeller University, priority 2012, dated 2021)
Where a name gives a salt, the structure may show the parent alone.

How the values were obtained:
[1] = system: HT-144 melanoma line, SK-Mel-334.2 primary melanoma line; assay: Lung metastatic colonization by HT-144 and SK-Mel-334.2 cells in NOD scid mice; assay type: in vivo, human
Experimental: Melanoma cells used for in vivo metastasis assays were transduced with a stably expressed retroviral construct encoding a luciferase reporter gene (Ponomarev et al., 2004), allowing us to monitor the in vivo progression of melanoma cells by bioluminescence imaging. The following numbers of melanoma cells, resuspended in 100 μL of PBS, were injected intravenously via the tail-vein: 4×10^4 MeWo cells, 2.5×10^5 HT-144 cells, 2×10^5 SK-Mel-334.2 cells, 5×10^4B16F10 cells, and 1×10^5 YUMM cells. The MeWo, HT-144, and SK-Mel-334.2 cells were injected into 6-8 week-old sex-matched NOD scid mice, while the B16F10 and YUMM cells were injected into 6-8 week-old sex-matched C57BL/6 mice. In all experiments assessing at the effects of GW3965 on metastasis formation, mice were pre-treated on a control diet or a GW3965-supplemented diet (20 mg/kg) for 10 days. To assess the effect of GW3965 treatment on brain metastasis, 1×10^5 MeWo brain-metastatic derivatives were injected intracardially into athymic nude mice. Immediately following injection, mice were randomly assigned to a control diet or GW3965-supplemented diet (100 mg/kg). […]

[2] = system: MeWo human melanoma cells; assay: Lung metastatic colonization by MeWo cells injected i.v. into NOD Scid mice; assay type: in vivo; conditions: for reduction in lung metastatic colonization: chow 20 mg/kg starting 10 days prior to cell injection
Experimental: Melanoma cells used for in vivo metastasis assays were transduced with a stably expressed retroviral construct encoding a luciferase reporter gene (Ponomarev et al., 2004), allowing us to monitor the in vivo progression of melanoma cells by bioluminescence imaging. The following numbers of melanoma cells, resuspended in 100 μL of PBS, were injected intravenously via the tail-vein: 4×10^4 MeWo cells, 2.5×10^5 HT-144 cells, 2×10^5 SK-Mel-334.2 cells, 5×10^4B16F10 cells, and 1×10^5 YUMM cells. The MeWo, HT-144, and SK-Mel-334.2 cells were injected into 6-8 week-old sex-matched NOD scid mice, while the B16F10 and YUMM cells were injected into 6-8 week-old sex-matched C57BL/6 mice. In all experiments assessing at the effects of GW3965 on metastasis formation, mice were pre-treated on a control diet or a GW3965-supplemented diet (20 mg/kg) for 10 days. To assess the effect of GW3965 treatment on brain metastasis, 1×10^5 MeWo brain-metastatic derivatives were injected intracardially into athymic nude mice. Immediately following injection, mice were randomly assigned to a control diet or GW3965-supplemented diet (100 mg/kg). To determine whether oral delivery of GW3965 can inhibit the progression of incipient metastasis, NOD Scid mice were intravenously injected with 4×10^4 MeWo cells and the cells were allowed to colonize the lungs for 42 days, after which mice were blindedly assigned to a control diet or a GW3965-supplemented diet (100 mg/kg) treatment.

[3] = system: B16F10, MeWo and SK-Mel-334.2 cells; assay: Overall survival of mice bearing subcutaneous melanoma tumors; assay type: in vivo, mouse; conditions: chow supplemented with GW3965 100 mg/kg after tumor establishment
[4] = system: ApoE; assay: ApoE expression by qRT-PCR in human melanoma cells; assay type: cell-based; conditions: parental MeWo cells; GW3965 48 hours
Experimental: Total RNA was extracted from various cell lines using the miRvana kit (AM1560, Applied Biosystems, Austin, Tex.). The expression levels of mature miRNAs were quantified using the Taqman miRNA expression assay (4427975-0002228, Applied Biosystems). RNU44 was used as an endogenous control for normalization. For mRNA expression analyses, 600 ng of total RNA was reverse transcribed using the cDNA First-Strand Synthesis Kit (18080-051, Invitrogen), and roughly 200 ng of the resulting cDNA was then mixed with SYBR green PCR Master Mix (4309155, Applied Biosystems) and the appropriate primers. Each reaction was performed in quadruplicate, and mRNA expression was quantified by performing real-time PCR amplification using an ABI Prism 7900HT Real-Time PCR System (Applied Biosystems). GAPDH was used as an endogenous control for normalization. The following primers were used: […]
RNA was extracted from whole cell lysates using the Total RNA Purification Kit (17200, Norgen, Thorold, Canada). 600 ng of total RNA was then reverse transcribed into cDNA using the cDNA First-Strand Synthesis Kit (18080-051, Invitrogen), and quantitative real-time PCR amplification was performed as previously described (Pencheva et al., 2012) using an ABI Prism 7900HT Real-Time PCR System (Applied Biosystems, Austin, Tex.). Each PCR reaction was carried out in quadruplicates. Gene expression was normalized to GAPDH, which was used as an endogenous control.
For every sample, 600 ng of RNA was reverse transcribed into cDNA using the cDNA First-Strand Synthesis kit (Invitrogen). Approximately 200 ng of cDNA was mixed with SYBR® green PCR Master Mix and the corresponding forward and reverse primers specific for detection of human ApoE. Each reaction was carried out in quadruplicates, and ApoE mRNA expression levels were measured by quantitative real-time PCR amplification using an ABI Prism 7900HT Real-Time PCR System (Applied Biosystems). The relative ApoE expression was determined using the ΔΔCt method. GAPDH was used as an endogenous control for normalization purposes.

[5] = system: SK-Mel-2 human melanoma cells; assay: Subcutaneous SK-Mel-2 tumor growth in immunocompromised mice; assay type: in vivo; conditions: oral, GW3965-supplemented diet
[6] = system: B16F10 parental and DTIC-resistant cells; assay: Tumor growth by DTIC-sensitive and DTIC-resistant B16F10 cells; assay type: in vivo, mouse; conditions: chow supplemented with GW3965 100 mg/kg
Experimental: First, the cells were treated with 500 μg/mL DTIC for one week. Following this initial DTIC treatment, the remaining (˜10%) viable cells were allowed to recover for one week, after which 750 rag/mL of DTIC was added to the cell media for 5 days. Subsequent to this high-dose treatment, the cells were allowed to recover in the presence of low-dose DTIC (100 jag/mL) for one week. The cells were then continuously cultured in cell media containing 200 rag/mL DTIC for at least one month prior to grafting the cells into mice. DTIC was added to fresh cancer cell media every 3 days.

[7] = system: SK-Mel-334.2 primary human melanoma line; assay: Subcutaneous SK-Mel-334.2 tumor growth in immunocompromised mice; assay type: in vivo; conditions: oral, GW3965-supplemented diet
[8] = system: MeWo cells; assay: Orthotopic metastasis assay (lung colonization after tumor excision); assay type: in vivo, human; conditions: oral, 100 mg/kg for 1 month post-tumor excision
Experimental: To determine the effect of GW3965 treatment on lung colonization by melanoma cells dissociated from an orthotopic site, 1×10^6 MeWo cells expressing a luciferase reporter were subcutaneously injected into both lower flanks of NOD Scid mice. Upon the formation of tumors measuring ˜300 mm^3 in volume, the tumors were excised and the mice were randomly assigned to a control diet or a GW3965-supplemented diet (100 mg/kg) treatment. One month after tumor excision, the lungs were extracted and lung colonization was measured by ex vivo bioluminescence imaging. To histologically confirm the extent of melanoma lung colonization, lungs were then fixed in 4% PFA overnight, paraffin-embedded, section into […] increments and stained for human vimentin (VP-V684, Vector Laboratories).

[9] = system: DTIC-resistant MeWo human melanoma cells; conditions: oral, GW3965 diet 100 mg/kg
Experimental: Following growth of tumors to 5-10 mm^3 in volume, mice were blindedly assigned to the following treatment groups: (1) control diet; (2) control diet+DTIC (50 mg/kg); (3) GW3965-supplemented diet (100 mg/kg). […] DTIC was administered daily, as described above, in cycles consisting of 5 consecutive daily treatments interspersed by 2-day off-treatment intervals. Tumor growth was measured twice a week.

Row | Compound | metastatic colonization ([1]; HT-144 melanoma line) | metastatic colonization ([1]; SK-Mel-334.2 primary melanoma line) | survival times following metastatic colonization ([2]; GW3965-supplemented chow) | suppression of colonization by incipient lung metastases ([2]; GW3965 diet 100 mg/kg from d42) [fold] | number of macroscopic metastatic nodules ([2]; GW3965 diet 100 mg/kg from d42, lungs at d77) | reduction in metastatic colonization capacity ([2]; cells pre-treated with GW3965 1 μM for 48 hours) | in vivo melanoma metastasis (lung, bioluminescence) ([2]; chow containing GW3965 20 mg/kg, oral) | reduction in lung metastatic colonization ([2]; oral) [fold] | overall survival time [3] | expression of ApoE [4] | tumor growth inhibition [5] [%] | suppression of tumor growth by the DTIC-resistant B16F10 clone [6] | tumor growth inhibition [7] [%] | inhibition of lung colonization by disseminated melanoma cells [8] [fold] | growth of in vivo-derived DTIC-resistant human melanoma tumors [9]
1 | O=C(O)Cc1cccc(OCCCN(Cc2cccc(C(F)(F)F)c2Cl)CC(c2ccccc2)c2ccccc2)c1 [GW3965 2, 3-[3-[N-(2-Chloro-3-trifluoromethylbenzyl)-(2,2-diphenylethyl)amino]propyloxy] phenylacetic acid hydrochloride] | suppressed | suppressed | significantly prolonged | 28 | decreased | more than 50 fold | significant reduction | 31 | substantially prolonged | increased | 49 | more than 70% | 73 | 17 | strongly inhibited
2 | O=S(=O)(c1ccccc1)N(CC(F)(F)F)c1ccc(C(O)(C(F)(F)F)C(F)(F)F)cc1 [T0901317 1] | – | – | – | – | – | – | – | 23 | – | – | – | – | – | – | –
